Several values for one entry are separate records, joined by “and”; a condition that tells them apart may be missing. Equal values may be shown once.
What was measured:
[1] = test system: liver MPS NASH model + TGFβ (PHH, KC and HSC co-cultures, high fat); test: Quantitative confocal imaging of collagen-1 and α-SMA in liver MPS NASH model with TGFβ (Fig 6c); assay type: cell-based, human; details: for Collagen 1 - fluroscence intensity / aSMA - fluroscence intensity: NASH + TGF, individual replicates; for reduction in collagen-1 deposition / reduction in α-SMA expression: NASH + TGFβ, highest concentrations
Source text: The systems biology approach identified TGFβ to be a key driver in creating a more advanced NASH phenotype in the MPS model, with enhanced fibrotic markers and reduced liver function. […] Therefore, we explored how effective pharmacological intervention would be for NASH microtissues with high NPC numbers supplemented with TGFβ and exposed them to varying concentrations of OCA and ELF QD as previously described (Supp. Fig. 6a). […] OCA had the greatest effect on IL-1Rα whereas ELF had the greatest effect on MCP-1 reflecting the fact that while both candidate drugs have anti-inflammatory properties, but their mechanisms of action are different. […] Finally, we used our quantitative fibrosis imaging assay to assess the effect of each candidate drug on collagen-1 deposition and α-SMA expression (Fig. 6c). […] Both candidate drugs caused a significant reduction in collagen-1 deposition and α-SMA expression, with the highest concentrations of OCA and ELF causing an 80% reduction in α-SMA expression and a 75% reduction in collagen-1 deposition (Fig. 6c).
Fig. 6 Using enhanced liver MPS NASH model with TGFβ, Obeticholic acid and Elafibranor modulate disease phenotype to a greater extent than in standard NASH model. PHH, KC and HSC co-cultures were cultured in the MPS platform under high-fat conditions and dosed with varying concentrations of Obeticholic acid (OCA) and Elafibranor (ELF) QD or vehicle control for 10 days, following an initial 4-day pre-culture phase. Throughout the compound dosing period TGFβ was also dosed onto all microtissues (NASH only vehicle control samples were also included in the study for comparison, which were not treated with TGFβ or dosed with any compound). a The secreted cytokine profile from treated liver microtissues was compared to determine the effects of each compound on the inflammatory profile of the liver with samples analysed at day 8 and 14 of the culture. Data were normalised by Z-transformation to allow comparison of all analytes (white = undetected). b The expression of fibrosis-associated biomarkers was analysed on day 14 media samples and compared to NASH + TGFβ control samples. c Liver microtissues were stained for collagen-type I, α-SMA, nuclei (DAPI), phalloidin (green) and imaged by confocal microscopy. Representative images are shown and scale bars 200 µm. Staining of microtissues was quantified by measuring total fluorescence intensity throughout individual microtissues, each data point represents an average of all microtissues per MPS culture (min 8, max 20). All datapoints shown with error bars highlighting means ± SD, all data from a minimum of three independent cultures: all comparisons were made to NASH + TGFβ control samples.
To visualise fibrosis proteins in the liver microtissues, scaffolds were fixed for 15 min in 4% paraformaldehyde following culture in the MPS platform. They were permeabilized with 0.1% Triton-X and blocked with 2% BSA before staining overnight at 4 °C with antibodies against alpha SMA (Abcam, UK - ab7817) and collagen 1 (Rockland, USA—600 401 103 0.5). Scaffolds were then stained with fluorescently conjugated secondary antibodies (Alexa-Fluor 555 goat anti-rabbit #A21429; Alexa-Fluor 647 donkey anti-rabbit #A31573; Alexa-Fluor 555 goat anti-mouse #A21424; Alexa-Fluor 647 goat anti-mouse #A21235 (Thermofisher, UK) along with Phalloidin 488 (Thermofisher, UK) and Hoechst 33342 (Invitrogen) for 1.5 h at room temperature. Scaffolds were washed three times with PBS and mounted onto glass microscope slides with anti-fade mounting medium. Confocal fluorescent images of the stained scaffolds were captured using a Cell Voyager 7000 (CV700, Yokogawa Inc.) automated confocal microscope. Image acquisition was controlled using the SearchFirst functionality of the Wako Software suite (Fujifilm Wako Automation). A workflow was designed to automatically locate and acquire images of each scaffold in a consistent and unbiased manner (Supp. Fig. 1). […]

[2] = Non-specific compound binding: drug recovery in blank liver MPS plates (no cells), LC-MS; assay type: in vitro ADME; details: blank liver MPS platform/plates, vs input media, read-out: Drug recovery incubation in blank MPS platform (no cells)
[3] = test system: liver MPS NASH model (PHH, KC and HSC co-cultures, high fat); test: Cell health in dosed NASH microtissues: tissue density (Hoechst) and albumin production (ELISA); assay type: cell-based, human; details: for cytotoxicity in NASH microtissues: QD for 10 days
Description: Following 10 days of compound treatment (Supp. Fig. 6a), NASH microtissues were assessed for the production of inflammatory and fibrotic biomarkers (Fig. 3a), the expression of pro-fibrotic genes (Fig. 3b) and the expression of collagen-1 and alpha SMA (Fig. 3c, d). […] Crucially using the developed quantitative imaging approach, both OCA and ELF abrogated α-SMA expression in a concentration-dependent manner by up to 50% and collagen-1 deposition was reduced by up to 35% (Fig. 3d).
Soluble biomarkers in cell culture medium from the MPS were analysed by enzyme-linked immunosorbent assay (ELISA); IL-6 was measured by Human IL-6 DuoSet ELISA (R&D Systems); MCP-1 was measured by Human CCL2/MCP-1 DuoSet ELISA (R&D Systems); pro-collagen 1 was measured by Human Pro-Collagen I α1 DuoSet (R&D Systems); TIMP-1 was measured by Human TIMP-1 Quantikine ELISA Kit (R&D Systems); Fibronectin was measured by Human Fibronectin DuoSet ELISA (R&D Systems); YKL-40 was measured by Human Chitinase 3-like 1 Quantikine ELISA Kit (R&D Systems); Albumin secretion was measured by Human Albumin AssayMax™ ELISA kit (Assay Pro, St. Charles, MO). For all assays, the manufacturer’s protocol was followed.
Supplemental Figure 6 – Treatment of NASH microtissues in MPS platform with Obeticholic acid and […]
PHH, KC and HSC co-cultures were cultured in the MPS platform under high fat conditions and dosed with varying concentrations of Obeticholic acid (OCA) and Elafibranor (ELF) dosed QD for 10 days, following an initial 4-day pre-culture phase. A) Overview of the experimental timeline. B) Tissue density of scaffolds from each control was assessed by quantifying Hoechst staining in each FOV (8 FOV per culture) at the end of the study. C) Albumin production between conditions was compared by ELISA at two timepoints. All datapoint are shown and error bars highlight means ± SD.
(1 picture or pasted object on this page, not shown here)

| Compound | Collagen 1 - fluroscence intensity ([1]; 1.3 uM, listed as ELF) | aSMA - fluroscence intensity ([1]; 1.3 uM, listed as ELF) | Collagen 1 - fluroscence intensity ([1]; 13 uM, listed as ELF) | aSMA - fluroscence intensity ([1]; 13 uM, listed as ELF) | Collagen 1 - fluroscence intensity ([1]; 65 uM, listed as ELF) | aSMA - fluroscence intensity ([1]; 65 uM, listed as ELF) | reduction in collagen-1 deposition [1] | reduction in α-SMA expression [1] | recovery at 1 µM [2] | cytotoxicity in NASH microtissues [3] | Albumin production ([3]; higher doses, 10 days of compound treatment) | Collagen 1 - fluroscence intensity ([1]; 0.25 uM, listed as OCA) | aSMA - fluroscence intensity ([1]; 0.25 uM, listed as OCA) | Collagen 1 - fluroscence intensity ([1]; 5 uM, listed as OCA) | aSMA - fluroscence intensity ([1]; 5 uM, listed as OCA) | Collagen 1 - fluroscence intensity ([1]; 12.5 uM, listed as OCA) | aSMA - fluroscence intensity ([1]; 12.5 uM, listed as OCA) | collagen-1 and α-SMA signal, fat and TGFβ compared to just fat alone ([1]; NASH microtissues, high NPC) |
| --- | --- | --- | --- | --- | --- | --- | --- | --- | --- | --- | --- | --- | --- | --- | --- | --- | --- | --- |
| CSc1ccc(C(=O)/C=C/c2cc(C)c(OC(C)(C)C(=O)O)c(C)c2)cc1 [Elafibranor] | 1733.28 and 2118.75 and 2931.26 | 730.875 and 499.771 and 815.833 | 1948.99 and 2325.43 | 408.818 and 783.286 | 815.347 and 1263.35 and 1286.58 | 106.491 and 171.359 and 165.195 | 75% | 80% | 97% | does not cause cytotoxicity | slightly reduce albumin production |  |  |  |  |  |  |  |
| CC[C@H]1[C@@H](O)[C@@H]2[C@H](CC[C@]3(C)[C@@H]([C@H](C)CCC(=O)O)CC[C@@H]23)[C@@]2(C)CC[C@@H](O)C[C@@H]12 [Obeticholic acid] |  |  |  |  |  |  | 75% | 80% | 110% | does not cause cytotoxicity |  | 1951.11 and 3372.52 and 2271.93 | 697.585 and 1188.53 and 484.974 | 1987.74 and 1316.74 and 1611.55 | 480.346 and 350.765 and 416.589 | 1674.28 and 412.802 and 1126.69 | 287.458 and 39.7737 and 104.277 |  |
| TGFβ: recombinant TGF beta 1 protein (Abcam), 1 ng/ml cue |  |  |  |  |  |  |  |  |  |  |  |  |  |  |  |  |  | significant increase |

From paper PMC8443589, “Modelling human liver fibrosis in the context of non-alcoholic steatohepatitis using a microphysiological system” (Communications Biology, 2021)
